Experiment: xn = mol fraction of the nth substance listed

O=S(=O)([O-])[O-].[Li+].[Li+] + [2H]O[2H]
viscosity [mPa·s], 101 kPa
Conditions	x1 = 0.005	x1 = 0.016	x1 = 0.032	x1 = 0.052
298.15 K	1.243	1.74	2.887	5.343
308.15 K	0.975	1.355	2.216	3.964
318.15 K	0.802	1.102	1.77	3.084

COCCOCCOC + CCCCCCCCCC
viscosity [mPa·s], 101.33 kPa
Conditions	x1 = 0.1008	x1 = 0.2018	x1 = 0.3025	x1 = 0.3984	x1 = 0.4993	x1 = 0.6592	x1 = 0.701	x1 = 0.7987	x1 = 0.9013
298.15 K	0.798	0.788	0.787	0.79	0.8	0.834	0.846	0.869	0.915
308.15 K	0.689	0.682	0.679	0.68	0.688	0.716	0.726	0.746	0.784
318.15 K	0.597	0.59	0.589	0.589	0.597	0.618	0.627	0.643	0.674

COCCOCCOC + C1CCCCC1
viscosity [mPa·s], 101.33 kPa
Conditions	x1 = 0.0981	x1 = 0.1885	x1 = 0.2854	x1 = 0.3996	x1 = 0.5024	x1 = 0.6005	x1 = 0.7027	x1 = 0.8014	x1 = 0.898
298.15 K	0.794	0.765	0.76	0.769	0.785	0.808	0.843	0.882	0.924
303.15 K	0.734	0.706	0.702	0.714	0.73	0.751	0.779	0.813	0.851
308.15 K	0.677	0.654	0.653	0.65	0.679	0.697	0.725	0.756	0.792

OC(C(F)(F)F)C(F)(F)F + O
viscosity [mPa·s], 101 kPa
Conditions	298.15 K	303.15 K	313.15 K	323.15 K
x1 = 0.002095	0.921	0.824	0.671	0.559
x1 = 0.004456	0.959	0.857	0.691	0.575
x1 = 0.008636	1.027	0.911	0.73	0.602
x1 = 0.01141	1.076	0.951	0.756	0.621
x1 = 0.0205	1.22	1.069	0.84	0.682
x1 = 0.0264	1.31	1.147	0.897	0.727
x1 = 0.04493	1.583	1.383	1.075	0.869
x1 = 0.06872	1.854	1.606	1.246	0.997
x1 = 0.09912	2.077	1.797	1.377	1.094
x1 = 0.1716	2.251	1.93	1.463	1.147
x1 = 0.2057	2.246	1.934	1.459	1.142
x1 = 0.3052	2.102	1.83	1.4	1.086
x1 = 0.4208	1.879	1.633	1.262	1.004
x1 = 0.5004	1.76	1.541	1.202	0.964
x1 = 0.6306	1.636	1.433	1.119	0.907
x1 = 0.6778	1.606	1.405	1.102	0.883
x1 = 0.7422	1.585	1.39	1.077	0.864
x1 = 0.8064	1.575	1.374	1.049	0.849
x1 = 0.8456	1.575	1.372	1.045	0.833

CNc1ccccc1 + CCCCOCCO
viscosity [mPa·s], 101.3 kPa
Conditions	x2 = 0.0992	x2 = 0.2016	x2 = 0.3298	x2 = 0.4032	x2 = 0.4978	x2 = 0.6441	x2 = 0.7771	x2 = 0.8935
298 K	2.01	2.089	2.213	2.314	2.425	2.589	2.709	2.788
303 K	1.756	1.811	1.918	1.999	2.094	2.232	2.319	2.395
308 K	1.567	1.613	1.699	1.753	1.836	1.951	2.049	2.111
313 K	1.398	1.433	1.502	1.55	1.619	1.718	1.792	1.851
318 K	1.256	1.302	1.352	1.444	1.495	1.576	1.661	1.696

CCCCCCn1cc[n+](C)c1.F[B-](F)(F)F + CCCCCO
101.33 kPa, x1 = 0.135
Conditions	viscosity [mPa·s]
315 K	5.305
315.75 K	4.745

Oc1ccccc1 + O
viscosity [mPa·s], 101 kPa
Conditions	293.15 K	303.15 K	313.15 K	323.15 K
x1 = 0.004	1.056	0.8342	0.6816	0.5696
x1 = 0.008	1.107	0.8703	0.7185	0.5898
x1 = 0.01	1.16	0.9071	0.737	0.611
x1 = 0.02	1.215	0.9485	0.7664	0.634
x1 = 0.021	–	–	–	0.66
x1 = 0.31	–	2.972	2.253	1.775
x1 = 0.36	4.372	3.153	2.383	1.858
x1 = 0.43	4.731	3.393	2.553	1.981
x1 = 0.52	5.273	3.742	2.792	2.164
x1 = 0.63	6.146	4.288	3.161	2.42
x1 = 0.78	–	–	3.77	–

COCCOCCOC + CCCCCCCC
viscosity [mPa·s], 101.33 kPa
Conditions	x1 = 0.0946	x1 = 0.203	x1 = 0.2985	x1 = 0.3956	x1 = 0.4955	x1 = 0.5945	x1 = 0.697	x1 = 0.7972	x1 = 0.8977
298.15 K	0.515	0.535	0.561	0.594	0.636	0.681	0.748	0.807	0.884
303.15 K	0.485	0.503	0.536	0.557	0.593	0.636	0.686	0.746	0.82
308.15 K	0.458	0.475	0.501	0.523	0.556	0.596	0.641	0.695	0.762
313.15 K	0.432	0.448	0.473	0.493	0.524	0.559	0.604	0.65	0.712
318.15 K	0.41	0.425	0.446	0.466	0.493	0.523	0.575	0.61	0.667

Oc1ccccc1 + O=Cc1ccccc1
308.15 K, 101.33 kPa
Conditions	viscosity [mPa·s]
x2 = 0.107	4.318
x2 = 0.303	2.944
x2 = 0.39	2.642
x2 = 0.499	2.401
x2 = 0.595	1.989
x2 = 0.706	1.55
x2 = 0.904	1.2

ClC(Cl)C(Cl)Cl + C1CCOC1
303.15 K, 101 kPa
Conditions	viscosity [mPa·s]
x2 = 0.0912	1.403
x2 = 0.1846	1.347
x2 = 0.2753	1.283
x2 = 0.4617	1.108
x2 = 0.5426	1.015
x2 = 0.6763	0.8466
x2 = 0.7791	0.7155
x2 = 0.8994	0.5718
x2 = 0.9513	0.515

O=S(=O)([O-])[O-].[NH3+]O.[NH3+]O + O
viscosity [mPa·s], 101 kPa
Conditions	x1 = 0.001	x1 = 0.002	x1 = 0.006	x1 = 0.012	x1 = 0.019	x1 = 0.027	x1 = 0.035	x1 = 0.045
293.15 K	1.022	1.046	1.134	1.264	1.435	1.678	1.925	2.198
298.15 K	0.905	0.931	0.995	1.121	1.277	1.481	1.706	1.983
303.15 K	0.811	0.831	0.89	1.006	1.148	1.317	1.523	1.849
313.15 K	0.666	0.683	0.734	0.825	0.937	1.075	1.244	1.508
323.15 K	0.559	0.573	0.616	0.693	0.791	0.901	1.04	1.247

COCCOCCOC + CCOC(=O)OCC
viscosity [mPa·s], 101.33 kPa
Conditions	298.15 K	308.15 K	318.15 K
x1 = 0.0487	0.761	0.669	0.572
x1 = 0.0871	0.774	0.674	0.593
x1 = 0.1367	0.787	0.68	0.6
x1 = 0.18	0.798	0.687	0.607
x1 = 0.2621	0.817	0.706	0.618
x1 = 0.306	0.828	0.713	0.626
x1 = 0.3935	0.849	0.731	0.64
x1 = 0.4303	0.857	0.739	0.652
x1 = 0.4835	0.87	0.747	0.656
x1 = 0.557	0.886	0.766	0.665
x1 = 0.6202	0.899	0.772	0.674
x1 = 0.6549	0.907	0.783	0.679
x1 = 0.7104	0.92	0.79	0.687
x1 = 0.7618	0.933	0.799	0.695
x1 = 0.8134	0.945	0.809	0.702
x1 = 0.8478	0.952	0.814	0.707
x1 = 0.938	0.97	0.825	0.719
x1 = 0.9718	0.979	0.832	0.725
x2 = 0.0073	0.987	0.837	0.727

CCCCCCN + CCOCCO
308.15 K, 101 kPa
Conditions	viscosity [mPa·s]
x2 = 0.1321	0.7283
x2 = 0.255	0.8766
x2 = 0.3698	1.026
x2 = 0.4772	1.172
x2 = 0.5779	1.305
x2 = 0.6726	1.426
x2 = 0.7616	1.469
x2 = 0.8456	1.457
x2 = 0.9249	1.445

ClC(Cl)C(Cl)Cl + CCCCCCCO
303.15 K, 101 kPa
Conditions	viscosity [mPa·s]
x2 = 0.1082	1.677
x2 = 0.2331	1.902
x2 = 0.3041	2.042
x2 = 0.3446	2.126
x2 = 0.4479	2.367
x2 = 0.5205	2.568
x2 = 0.6548	3.047
x2 = 0.781	3.616
x2 = 0.8562	4.014
x2 = 0.9304	4.446

COCCOCCOC + CCCCCCO
101 kPa
Conditions	viscosity [mPa·s]
293.15 K, x1 = 0.04448	4.368
293.15 K, x1 = 0.105	3.527
293.15 K, x1 = 0.1942	2.714
293.15 K, x1 = 0.3018	2.148
293.15 K, x1 = 0.4004	1.796
293.15 K, x1 = 0.4511	1.674
293.15 K, x1 = 0.6059	1.383
293.15 K, x1 = 0.6997	1.285
293.15 K, x1 = 0.7893	1.204
293.15 K, x1 = 0.9139	1.128
293.15 K, x1 = 0.9331	1.117
303.15 K, x1 = 0.04385	3.29
303.15 K, x1 = 0.09867	2.69
303.15 K, x1 = 0.1894	2.153
303.15 K, x1 = 0.2974	1.72
303.15 K, x1 = 0.4047	1.435
303.15 K, x1 = 0.4914	1.28
303.15 K, x1 = 0.6035	1.141
303.15 K, x1 = 0.7106	1.046
303.15 K, x1 = 0.7884	0.996
303.15 K, x1 = 0.9193	0.945
303.15 K, x1 = 0.942	0.937
313.15 K, x1 = 0.04597	2.536
313.15 K, x1 = 0.09846	2.162
313.15 K, x1 = 0.1996	1.706
313.15 K, x1 = 0.2989	1.412
313.15 K, x1 = 0.4011	1.226
313.15 K, x1 = 0.4983	1.089
313.15 K, x1 = 0.5998	0.991
313.15 K, x1 = 0.7041	0.916
313.15 K, x1 = 0.7993	0.866
313.15 K, x1 = 0.9072	0.825
313.15 K, x1 = 0.942	0.815

Source: the CheMixHub viscosity set
